Like-named read-outs stand apart in the source and are kept apart here.
Legend:
TPCK trypsin [1] = target: T1, TPCK trypsin (Bos taurus, UniProt P00760); assay type: biochemical; details: for average fluorescence of wells with trypsin exposed to tubes with immobilized ligand: 12.5 ng trypsin per tube, 120 minutes at room temperature
T1 construct: purchased Thermo Scientific Pierce 23266
T1 sequence (P00760 24-246): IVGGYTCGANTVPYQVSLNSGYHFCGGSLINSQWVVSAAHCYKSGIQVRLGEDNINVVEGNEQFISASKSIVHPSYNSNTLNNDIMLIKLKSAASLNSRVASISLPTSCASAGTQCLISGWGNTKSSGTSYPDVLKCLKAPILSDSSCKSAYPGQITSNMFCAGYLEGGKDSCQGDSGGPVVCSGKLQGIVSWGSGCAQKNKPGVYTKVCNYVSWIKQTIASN
Description: Protease activity and the inhibition thereof were measured with a Fluorescent Protease Assay Kit (Thermo Scientific Pierce, catalog number 23266). TRIS-buffered saline (TBS, 25 mM Tris, 0.15 M NaCl, pH 7.2) was reconstituted from dry solids in the kit with deionized water. Trypsin stock solution was freshly prepared by dissolving TPCK trypsin from kit with 1 mL deionized water to make a 50 mg/mL solution. […] Aliquots of 10 μL were stored at −60° C. Individual aliquots of the stock solution were diluted in 1.0 mL of TBS (0.5 mg/mL), and 10 μL of this solution was further diluted in 10 mL of TBS (0.5 μg/mL). This solution was serially diluted 1:1 with TBS to create a trypsin solution of 62.5 ng/mL. The trypsin solution was kept in an ice bath until use. 200 μL of the diluted trypsin (12.5 ng) was added to each prepared polypropylene tube. The solution was aspirated and re-dispensed three times in each tube to assure complete mixing and contact of the solution with the derivatized internal walls of the tubes. A new disposable tip was used for each transfer. After incubation at room temperature for 120 minutes, 100 μL of the trypsin solution from each tube was placed into individual wells of a 96-well, black, flat-bottomed plate (Greiner Bio-one, catalog number 655076, Monroe, N.C.). […] The plate was incubated at room temperature for 95 minutes. […] Increased fluorescence is indicative of trypsin-mediated digestion of the added FTC-casein solution via the decrease of FRET-based fluorescence quenching that exists in the intact protein.

TPCK trypsin [2] = target: T1, TPCK trypsin; assay type: biochemical; details: for average fluorescence of wells with trypsin exposed to tubes with immobilized ligand: 12.5 ng trypsin per tube, 120 minutes at room temperature; remark: listed apart in the source
Description: Protease activity and the inhibition thereof were measured with a Fluorescent Protease Assay Kit (Thermo Scientific Pierce, catalog number 23266). TRIS-buffered saline (TBS, 25 mM Tris, 0.15 M NaCl, pH 7.2) was reconstituted from dry solids in the kit with deionized water. Trypsin stock solution was freshly prepared by dissolving TPCK trypsin from kit with 1 mL deionized water to make a 50 mg/mL solution. Aliquots of 10 μL were stored at −60° C. Individual aliquots of the stock solution were diluted in 1.0 mL of TBS (0.5 mg/mL), and 10 μL of this solution was further diluted in 10 mL of TBS (0.5 μg/mL). This solution was serially diluted 1:1 with TBS to create a trypsin solution of 62.5 ng/mL. The trypsin solution was kept in an ice bath until use. 200 μL of the diluted trypsin (12.5 ng) was added to each prepared polypropylene tube. The solution was aspirated and re-dispensed three times in each tube to assure complete mixing and contact of the solution with the derivatized internal walls of the tubes. A new disposable tip was used for each transfer. After incubation at room temperature for 120 minutes, 100 μL of the trypsin solution from each tube was placed into individual wells of a 96-well, black, flat-bottomed plate (Greiner Bio-one, catalog number 655076, Monroe, N.C.). FTC-casein—(casein protein modified by the addition of fluorescein isothiocyanate, a part of the Fluorescent Protease Assay Kit) solution in TBS buffer was freshly prepared and 100 μL of this solution was added to each well and mixed via aspiration and dispense. The plate was incubated at room temperature for 95 minutes. The fluorescence of the samples in the 96-well plate was measured on a SpectraFluor Plus fluorescence spectrometer (Tecan, Mannedorf, Switzerland) 5 minutes after the solution was added and additionally after 10, 20, 40, 60 and 95 minutes. Increased fluorescence is indicative of trypsin-mediated digestion of the added FTC-casein solution via the decrease of FRET-based fluorescence quenching that exists in the intact protein.

[3] = Example A, ligand immobilized on tube wall, background 5382 RFU
[4] = Example B, ligand immobilized on tube wall, background 5382 RFU
[5] = 0.1 mM TLCK in the well (not immobilized), after 20 minutes, background 5382 RFU

Compound	average fluorescence of wells with trypsin exposed to tubes with immobilized ligand (TPCK trypsin [1]; [3])	average fluorescence of wells with trypsin exposed to tubes with immobilized ligand (TPCK trypsin [2]; [4])	fluorescence of wells that contained FTC-casein, trypsin and inhibitor (TPCK trypsin [1]; [5])	inhibition of trypsin activity (TPCK trypsin [1]; Example A, ligand immobilized on tube wall, trypsin exposed 120 minutes at room temperature)	fluorescence of wells that contained FTC-casein, trypsin and inhibitor (TPCK trypsin [2]; [5])	inhibition of trypsin activity (TPCK trypsin [2]; Example B, ligand immobilized on tube wall, trypsin exposed 120 minutes at room temperature)
NCCCO [AP Ligand, 3-amino-1-propanol]	21289 RFU	20847 RFU				
Cc1ccc(S(=O)(=O)N[C@@H](CCCCN)C(=O)CCl)cc1.Cl [TLCK Ligand, N-alpha-tosyl-L-lysine chloromethyl ketone hydrochloride]	15521 RFU	13386 RFU	6841 RFU	35%	6841 RFU	48%

Reference: patent US12440833B2, “Sample containers adapted for acoustic ejections and sample preservation and methods thereof” (priority 2011, dated 2025)
